Experimental data from patent publication EP4790066A1, “GLP-1R/GIPR/GCGR TRIPLE AGONIST ANALOGUE AND USE THEREOF” (Shenzhen Bay Laboratory, priority 2023, dated 2025).
*1 amine or outer side, *2 acyl side, *3 side chain or, on linkers, in order; H or OH if unused. Where a SMILES comes first, the peptide text is derived from it. Bridges are numbered along the chain shown (N, C = ends). [ ]: non-standard residue; d: D form. X1 = O=C(O)CCCCCCCCCCCCCCCCCCC(=O)N[C@@H](CCCCNC(=O)COCCOCCNC(=O)COCCOCCNC(=O)CCC(=O)N(CCNC(=O)C[*:1])CCNC(=O)C[*:2])C(=O)O; Phe(2-F) = N[C@@H](Cc1ccccc1F)C(=O)O; αMeL = CC(C)C[C@](C)(N)C(=O)O; Iva = CC[C@](C)(N)C(=O)O; Aib = CC(C)(N)C(=O)O

Columns and labels:
Type in all cases: cell-based
GLP-1R = molecular target: T1, GLP-1R (Homo sapiens, UniProt P43220); assay: CreLuc method (CRE-luciferase reporter), HEK293/pGM-CREB-L-Luc/GLP-1R pool; conditions: 6 h incubation, read-out: EC50 (pM) for each receptor GLP-1R
T1 construct: expressed in transfected cells
Protocol: (§1) 1. Insulinotropic analogues can bind to the target receptor on the cell membrane, activate the cAMP response element (CRE), and initiate the expression of downstream luciferase. The expression level is positively correlated with the biological activity of the analogue being tested. After activation, luciferase substrate is added for chemiluminescence detection, and the luminescence intensity is determined to characterize the biological activity of the test compounds. Therefore, the target peptide derivatives (or polypeptide derivatives, i.e., TG1-TG94) prepared in Example 1 and Example 2 can be tested by the CreLuc method. The specific steps are as follows: The stably transfected cell lines HEK293/pGM-CREB-L-Luc/GLP-1R pool, HEK293/pGM-CREB-L-Luc/GIPR pool, and 293HEK/pGM-CREB-L-Luc/GCGR pool were constructed. […] The corresponding test cells were digested (1 min), dispersed by pipetting, and centrifuged (1000 rpm, 5 min). The culture medium was discarded, and the cells were resuspended in freestyle medium, centrifuged again, collected, and counted. The cells were then diluted to a cell density of 5 x 10^5 cells/mL and then added to the detection wells of a 384-well plate (40 µL/20,000 cells/well). Echo was used to add the corresponding analyte dilution series. The cell plate was incubated at 37°C and 5% CO2 for 6 h, then ONE-GLO (20 µL/well) was added for detection. It was kept in the dark for 3 min, then a chemiluminescent microplate reader was used for determination. The plate was read within 30 min, and the determination results were recorded. […] Table 3: EC50 values for target peptide derivatives

GIPR = molecular target: T2, GIPR (Homo sapiens, UniProt P48546); assay: CreLuc method (CRE-luciferase reporter), HEK293/pGM-CREB-L-Luc/GIPR pool; conditions: 6 h incubation, read-out: EC50 (pM) for each receptor GIPR
T2 construct: expressed in transfected cells
T2 sequence (P48546 22-466): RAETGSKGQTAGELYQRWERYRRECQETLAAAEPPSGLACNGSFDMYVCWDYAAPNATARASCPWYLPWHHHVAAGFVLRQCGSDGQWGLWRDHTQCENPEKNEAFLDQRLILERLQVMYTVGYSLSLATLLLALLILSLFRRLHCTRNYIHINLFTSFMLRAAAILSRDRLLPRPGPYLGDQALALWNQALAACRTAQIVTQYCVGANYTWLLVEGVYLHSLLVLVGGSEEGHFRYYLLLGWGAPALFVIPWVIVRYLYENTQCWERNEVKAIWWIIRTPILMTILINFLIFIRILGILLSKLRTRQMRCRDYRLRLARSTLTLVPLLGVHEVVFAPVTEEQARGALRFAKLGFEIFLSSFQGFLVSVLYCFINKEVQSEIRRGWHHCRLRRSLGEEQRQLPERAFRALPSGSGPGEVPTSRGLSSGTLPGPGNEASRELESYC
Protocol: as §1

GCGR = molecular target: T3, GCGR (Homo sapiens, UniProt P47871); assay: CreLuc method (CRE-luciferase reporter), 293HEK/pGM-CREB-L-Luc/GCGR pool; conditions: 6 h incubation, read-out: EC50 (pM) for each receptor GCGR
T3 construct: expressed in transfected cells
Protocol: as §1

T1 sequence (P43220 24-463, species assumed): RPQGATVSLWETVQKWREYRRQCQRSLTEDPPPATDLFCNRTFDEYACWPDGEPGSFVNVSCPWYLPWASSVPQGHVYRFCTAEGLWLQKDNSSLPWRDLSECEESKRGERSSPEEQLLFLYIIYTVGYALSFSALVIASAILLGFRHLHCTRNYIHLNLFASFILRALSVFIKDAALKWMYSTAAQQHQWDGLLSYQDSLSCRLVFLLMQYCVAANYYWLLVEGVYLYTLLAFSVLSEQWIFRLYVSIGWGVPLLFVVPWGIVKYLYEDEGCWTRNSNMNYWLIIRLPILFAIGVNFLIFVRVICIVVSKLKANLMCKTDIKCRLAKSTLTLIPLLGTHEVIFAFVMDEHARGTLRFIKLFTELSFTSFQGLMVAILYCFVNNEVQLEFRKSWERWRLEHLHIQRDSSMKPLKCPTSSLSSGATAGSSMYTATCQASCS
T3 sequence (P47871 26-477, species assumed): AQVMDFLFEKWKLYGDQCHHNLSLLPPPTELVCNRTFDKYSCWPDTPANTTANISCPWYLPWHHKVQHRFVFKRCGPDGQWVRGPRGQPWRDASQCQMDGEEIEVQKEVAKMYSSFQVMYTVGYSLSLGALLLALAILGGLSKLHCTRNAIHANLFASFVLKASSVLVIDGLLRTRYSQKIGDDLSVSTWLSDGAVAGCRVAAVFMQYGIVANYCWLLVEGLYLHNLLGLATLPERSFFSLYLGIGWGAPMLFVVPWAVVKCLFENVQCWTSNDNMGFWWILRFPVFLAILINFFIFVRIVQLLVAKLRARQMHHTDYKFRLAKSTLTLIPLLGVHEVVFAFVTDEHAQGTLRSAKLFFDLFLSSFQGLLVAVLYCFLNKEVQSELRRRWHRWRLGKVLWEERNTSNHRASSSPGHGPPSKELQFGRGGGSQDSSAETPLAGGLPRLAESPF

SMILES	EC50 (GLP-1R) [pM]	EC50 (GIPR) [pM]	EC50 (GCGR) [pM]
CC[C@H](C)[C@@H]1NC(=O)[C@H](Cc2ccccc2)NC(=O)[C@@H](NC(=O)C(C)(C)NC(=O)[C@H](CCC(N)=O)NC(=O)[C@H](C)NC(=O)[C@H](CCCCNC(C)=O)NC(=O)[C@H](CCCCN)NC(=O)[C@H](CC(=O)O)NC(=O)[C@H](CC(C)C)NC(=O)[C@](C)(CC(C)C)NC(=O)[C@@H](NC(=O)[C@H](CO)NC(=O)[C@H](Cc2ccc(O)cc2)NC(=O)[C@H](CC(=O)O)NC(=O)[C@H](CO)NC(=O)[C@@H](NC(=O)[C@H](Cc2ccccc2)NC(=O)[C@@H](NC(=O)CNC(=O)[C@H](Cc2c[nH]cn2)NC(=O)C(C)(C)NC(=O)[C@@H](N)Cc2ccc(O)cc2)[C@@H](C)O)[C@@H](C)O)[C@@H](C)CC)CSCC(=O)NCCN(C(=O)CCC(=O)NCCOCCOCC(=O)NCCOCCOCC(=O)NCCCC[C@H](NC(=O)CCCCCCCCCCCCCCCCCCC(=O)O)C(=O)O)CCNC(=O)CSC[C@@H](C(=O)NCC(=O)NCC(=O)N2CCC[C@H]2C(=O)N[C@@H](CO)C(=O)N[C@@H](CO)C(=O)NCC(=O)N[C@@H](C)C(=O)N2CCC[C@H]2C(=O)N2CCC[C@H]2C(=O)N2CCC[C@H]2C(=O)N[C@@H](CO)C(N)=O)NC(=O)[C@H](CC(C)C)NC(=O)[C@H](CC(C)C)NC(=O)[C@H](Cc2ccc(O)cc2)NC(=O)[C@H](CCC(=O)O)NC1=O [TG42]	477	21.3	99.4
CC[C@H](C)[C@@H]1NC(=O)[C@H](Cc2ccccc2)NC(=O)[C@@H](NC(=O)C(C)(C)NC(=O)[C@H](CCC(N)=O)NC(=O)[C@H](C)NC(=O)[C@H](CCCCNC(C)=O)NC(=O)[C@H](CCCCN)NC(=O)[C@H](CC(=O)O)NC(=O)[C@H](CC(C)C)NC(=O)[C@](C)(CC)NC(=O)[C@@H](NC(=O)[C@H](CO)NC(=O)[C@H](Cc2ccc(O)cc2)NC(=O)[C@H](CC(=O)O)NC(=O)[C@H](CO)NC(=O)[C@@H](NC(=O)[C@H](Cc2ccccc2F)NC(=O)[C@@H](NC(=O)CNC(=O)[C@H](Cc2c[nH]cn2)NC(=O)C(C)(C)NC(=O)[C@@H](N)Cc2c[nH]cn2)[C@@H](C)O)[C@@H](C)O)[C@@H](C)CC)CSCC(=O)NCCN(C(=O)CCC(=O)NCCOCCOCC(=O)NCCOCCOCC(=O)NCCCC[C@H](NC(=O)CCCCCCCCCCCCCCCCCCC(=O)O)C(=O)O)CCNC(=O)CSC[C@@H](C(=O)NCC(=O)NCC(=O)N2CCC[C@H]2C(=O)N[C@@H](CO)C(=O)N[C@@H](CO)C(=O)NCC(=O)N[C@@H](C)C(=O)N2CCC[C@H]2C(=O)N2CCC[C@H]2C(=O)N2CCC[C@H]2C(=O)N[C@@H](CO)C(N)=O)NC(=O)[C@H](CC(C)C)NC(=O)[C@H](CC(C)C)NC(=O)[C@H](Cc2ccc(O)cc2)NC(=O)[C@H](CCC(=O)O)NC1=O [TG66] (H-H[Aib]HGT[Phe(2-F)]TSDYSI[Iva]LDKK(Ac)AQ[Aib]CFIEYLLCGGPSSGAPPPS-NH2; linker 21-28 via X1)	435	34.7	201
CC[C@H](C)[C@@H]1NC(=O)[C@H](Cc2ccccc2)NC(=O)[C@@H](NC(=O)C(C)(C)NC(=O)[C@H](CCC(N)=O)NC(=O)[C@H](C)NC(=O)[C@H](CCCCNC(C)=O)NC(=O)[C@H](CCCCN)NC(=O)[C@H](CC(=O)O)NC(=O)[C@H](CC(C)C)NC(=O)[C@](C)(CC(C)C)NC(=O)[C@@H](NC(=O)[C@H](CO)NC(=O)[C@H](Cc2ccc(O)cc2)NC(=O)[C@H](CC(=O)O)NC(=O)[C@H](CO)NC(=O)[C@@H](NC(=O)[C@](C)(Cc2ccccc2)NC(=O)[C@@H](NC(=O)CNC(=O)[C@H](CCC(N)=O)NC(=O)C(C)(C)NC(=O)[C@@H](N)Cc2ccc(O)cc2)[C@@H](C)O)[C@@H](C)O)[C@@H](C)CC)CSCC(=O)NCCN(C(=O)CCC(=O)NCCOCCOCC(=O)NCCOCCOCC(=O)NCCCC[C@H](NC(=O)CCCCCCCCCCCCCCCCCCC(=O)O)C(=O)O)CCNC(=O)CSC[C@@H](C(=O)NCC(=O)NCC(=O)N2CCC[C@H]2C(=O)N[C@@H](CO)C(=O)N[C@@H](CO)C(=O)NCC(=O)N[C@@H](C)C(=O)N2CCC[C@H]2C(=O)N2CCC[C@H]2C(=O)N2CCC[C@H]2C(=O)N[C@@H](CO)C(N)=O)NC(=O)[C@H](CC(C)C)NC(=O)[C@H](CC(C)C)NC(=O)[C@H](Cc2ccc(O)cc2)NC(=O)[C@H](CCC(=O)O)NC1=O [TG23]	92.9	75.6	109
CC[C@H](C)[C@@H]1NC(=O)[C@H](Cc2ccccc2)NC(=O)[C@@H](NC(=O)C(C)(C)NC(=O)[C@H](CCC(N)=O)NC(=O)[C@H](C)NC(=O)[C@H](CCCNC(=N)N)NC(=O)[C@H](CCCCN)NC(=O)[C@H](CC(=O)O)NC(=O)[C@H](CC(C)C)NC(=O)[C@](C)(CC(C)C)NC(=O)[C@@H](NC(=O)[C@H](CO)NC(=O)[C@H](Cc2ccc(O)cc2)NC(=O)[C@H](CC(=O)O)NC(=O)[C@H](CO)NC(=O)[C@@H](NC(=O)[C@H](Cc2ccccc2)NC(=O)[C@@H](NC(=O)CNC(=O)[C@H](CCC(N)=O)NC(=O)C(C)(C)NC(=O)[C@@H](N)Cc2ccc(O)cc2)[C@@H](C)O)[C@@H](C)O)[C@@H](C)CC)CSCC(=O)NCCN(C(=O)CCC(=O)NCCOCCOCC(=O)NCCOCCOCC(=O)NCCCC[C@H](NC(=O)CCCCCCCCCCCCCCCCCCC(=O)O)C(=O)O)CCNC(=O)CSC[C@@H](C(=O)NCC(=O)NCC(=O)N2CCC[C@H]2C(=O)N[C@@H](CO)C(=O)N[C@@H](CO)C(=O)NCC(=O)N[C@@H](C)C(=O)N2CCC[C@H]2C(=O)N2CCC[C@H]2C(=O)N2CCC[C@H]2C(=O)N[C@@H](CO)C(N)=O)NC(=O)[C@H](CC(C)C)NC(=O)[C@H](CC(C)C)NC(=O)[C@H](Cc2ccc(O)cc2)NC(=O)[C@H](CCC(=O)O)NC1=O [TG35]	40.1	15.5	273
CC[C@H](C)[C@@H]1NC(=O)[C@H](Cc2ccccc2)NC(=O)[C@@H](NC(=O)C(C)(C)NC(=O)[C@H](CCC(N)=O)NC(=O)[C@H](C)NC(=O)[C@H](CCCCNC(C)=O)NC(=O)[C@H](CCCCN)NC(=O)[C@H](CC(=O)O)NC(=O)[C@H](CC(C)C)NC(=O)[C@](C)(CC(C)C)NC(=O)[C@@H](NC(=O)[C@H](CO)NC(=O)[C@H](Cc2ccc(O)cc2)NC(=O)[C@H](CC(=O)O)NC(=O)[C@H](CO)NC(=O)[C@@H](NC(=O)[C@H](Cc2ccccc2)NC(=O)[C@@H](NC(=O)CNC(=O)[C@H](CCC(N)=O)NC(=O)[C@@H](CO)NC(=O)[C@@H](N)Cc2ccc(O)cc2)[C@@H](C)O)[C@@H](C)O)[C@@H](C)CC)CSCC(=O)NCCN(C(=O)CCC(=O)NCCOCCOCC(=O)NCCOCCOCC(=O)NCCCC[C@H](NC(=O)CCCCCCCCCCCCCCCCCCC(=O)O)C(=O)O)CCNC(=O)CSC[C@@H](C(=O)NCC(=O)NCC(=O)N2CCC[C@H]2C(=O)N[C@@H](CO)C(=O)N[C@@H](CO)C(=O)NCC(=O)N[C@@H](C)C(=O)N2CCC[C@H]2C(=O)N2CCC[C@H]2C(=O)N2CCC[C@H]2C(=O)N[C@@H](CO)C(N)=O)NC(=O)[C@H](CC(C)C)NC(=O)[C@H](CC(C)C)NC(=O)[C@H](Cc2ccc(O)cc2)NC(=O)[C@H](CCC(=O)O)NC1=O [TG22] (H-Y[dS]QGTFTSDYSI[αMeL]LDKK(Ac)AQ[Aib]CFIEYLLCGGPSSGAPPPS-NH2; linker 21-28 via X1)	665	18.3	205
CC[C@H](C)[C@@H]1NC(=O)[C@H](Cc2ccccc2)NC(=O)[C@@H](NC(=O)C(C)(C)NC(=O)[C@H](CCC(N)=O)NC(=O)[C@H](C)NC(=O)[C@H](CCCCNC(C)=O)NC(=O)[C@H](CCCCN)NC(=O)[C@H](CC(=O)O)NC(=O)[C@H](CC(C)C)NC(=O)[C@](C)(CC(C)C)NC(=O)[C@@H](NC(=O)[C@H](CO)NC(=O)[C@H](Cc2ccncc2)NC(=O)[C@H](CC(=O)O)NC(=O)[C@H](CO)NC(=O)[C@@H](NC(=O)[C@H](Cc2ccccc2)NC(=O)[C@@H](NC(=O)CNC(=O)[C@H](CCC(N)=O)NC(=O)C(C)(C)NC(=O)[C@@H](N)Cc2ccc(O)cc2)[C@@H](C)O)[C@@H](C)O)[C@@H](C)CC)CSCC(=O)NCCN(C(=O)CCC(=O)NCCOCCOCC(=O)NCCOCCOCC(=O)NCCCC[C@H](NC(=O)CCCCCCCCCCCCCCCCCCC(=O)O)C(=O)O)CCNC(=O)CSC[C@@H](C(=O)NCC(=O)NCC(=O)N2CCC[C@H]2C(=O)N[C@@H](CO)C(=O)N[C@@H](CO)C(=O)NCC(=O)N[C@@H](C)C(=O)N2CCC[C@H]2C(=O)N2CCC[C@H]2C(=O)N2CCC[C@H]2C(=O)N[C@@H](CO)C(N)=O)NC(=O)[C@H](CC(C)C)NC(=O)[C@H](CC(C)C)NC(=O)[C@H](Cc2ccc(O)cc2)NC(=O)[C@H](CCC(=O)O)NC1=O [TG38]	70.2	14.5	232
